Columns and labels:
Assay type in all cases: functional
PBMC [1] = assay: Selectivity index of antiviral vs cytoxic activity in PBM cells (CC50/EC50)
Vero = assay: Cytotoxicity against Vero cells; settings: Chlorocebus sabaeus
CCRF-CEM = assay: Cytotoxicity against human CEM cells
PBMC [2] = assay: Cytotoxicity against human PBM cells

SMILES | Ratio CC50/EC50 (PBMC [1]) | CC50 (Vero) [µM] | CC50 (CCRF-CEM) [µM] | CC50 (PBMC [2]) [µM]
C=CCc1ccc(O)c(-c2ccc(O)c(CC=C)c2)c1 [HONOKIOL] | 5 | 22.5 | 10.9 | 16.1
C=CCc1ccc(O)c(-c2cc(CC=C)ccc2O)c1 [MAGNOLOL] |  | 50.6 | 99.5 | 38.6
